# From the CheMixHub viscosity set
# ± gives the uncertainty stated by the source.
# Assay: xn = mol fraction of the nth substance listed
# [1] = 298.15 K, 101.33 kPa, x2 = 0.8001
smiles,measurement,setting,value
CCCOC(=O)CCC + CCCCCCCCCCCCCC,viscosity,"298.15 K, 101.33 kPa, x2 = 0.0852",0.852 ± 0.008 mPa·s
same,viscosity,"298.15 K, 101.33 kPa, x2 = 0.1135",0.877 ± 0.008 mPa·s
same,viscosity,"298.15 K, 101.33 kPa, x2 = 0.154",0.911 ± 0.009 mPa·s
same,viscosity,"298.15 K, 101.33 kPa, x2 = 0.2133",0.967 ± 0.009 mPa·s
same,viscosity,"298.15 K, 101.33 kPa, x2 = 0.2994",1.054 ± 0.01 mPa·s
same,viscosity,"298.15 K, 101.33 kPa, x2 = 0.3667",1.127 ± 0.011 mPa·s
same,viscosity,"298.15 K, 101.33 kPa, x2 = 0.4774",1.25 ± 0.012 mPa·s
same,viscosity,"298.15 K, 101.33 kPa, x2 = 0.6061",1.413 ± 0.013 mPa·s
same,viscosity,"298.15 K, 101.33 kPa, x2 = 0.7085",1.558 ± 0.014 mPa·s
same,viscosity,"298.15 K, 101.33 kPa, x2 = 0.8446",1.786 ± 0.016 mPa·s
same,viscosity,"298.15 K, 101.33 kPa, x2 = 0.9178",1.909 ± 0.017 mPa·s
CC(C)CCCC(C)CCCC(C)CCCC(C)C (centres undefined) + CCCCCCCCCCCCCCCC,viscosity,"298.15 K, 101.33 kPa, x2 = 0.0966",5.129 ± 0.06 mPa·s
same,viscosity,"298.15 K, 101.33 kPa, x2 = 0.1996",4.843 ± 0.056 mPa·s
same,viscosity,"298.15 K, 101.33 kPa, x2 = 0.2995",4.565 ± 0.051 mPa·s
same,viscosity,"298.15 K, 101.33 kPa, x2 = 0.3995",4.303 ± 0.046 mPa·s
same,viscosity,"298.15 K, 101.33 kPa, x2 = 0.4994",4.063 ± 0.042 mPa·s
same,viscosity,"298.15 K, 101.33 kPa, x2 = 0.5995",3.839 ± 0.039 mPa·s
same,viscosity,"298.15 K, 101.33 kPa, x2 = 0.6995",3.631 ± 0.036 mPa·s
same,viscosity,[1],3.438 ± 0.032 mPa·s
same,viscosity,"298.15 K, 101.33 kPa, x2 = 0.85",3.332 ± 0.031 mPa·s
CC(C)CCCC(C)CCCC(C)CCCCC(C)CCCC(C)CCCC(C)C (centres undefined) + CCCCCCCCCCCCCCCC,viscosity,"298.15 K, 101.33 kPa, x2 = 0.045",26.05 ± 0.2 mPa·s
same,viscosity,"298.15 K, 101.33 kPa, x2 = 0.099",23.59 ± 0.18 mPa·s
same,viscosity,"298.15 K, 101.33 kPa, x2 = 0.1473",21.54 ± 0.16 mPa·s
same,viscosity,"298.15 K, 101.33 kPa, x2 = 0.2008",19.45 ± 0.15 mPa·s
same,viscosity,"298.15 K, 101.33 kPa, x2 = 0.2977",16.16 ± 0.12 mPa·s
same,viscosity,"298.15 K, 101.33 kPa, x2 = 0.4495",11.84 ± 0.092 mPa·s
same,viscosity,"298.15 K, 101.33 kPa, x2 = 0.6011",8.569 ± 0.068 mPa·s
same,viscosity,[1],5.307 ± 0.045 mPa·s
CCCCCCCCCCCCO + CCCCCCCCCCCO,viscosity,"298.15 K, 101.8 kPa, x2 = 0.105",16.69 ± 0.39 mPa·s
same,viscosity,"298.15 K, 101.8 kPa, x2 = 0.3165",16.05 ± 0.39 mPa·s
same,viscosity,"298.15 K, 101.8 kPa, x2 = 0.5196",15.53 ± 0.38 mPa·s
same,viscosity,"298.15 K, 101.8 kPa, x2 = 0.7165",15 ± 0.38 mPa·s
same,viscosity,"298.15 K, 101.8 kPa, x2 = 0.9076",14.51 ± 0.38 mPa·s
same,viscosity,"308.15 K, 101.8 kPa, x2 = 0.105",11.29 ± 0.39 mPa·s
same,viscosity,"308.15 K, 101.8 kPa, x2 = 0.3165",10.91 ± 0.35 mPa·s
same,viscosity,"308.15 K, 101.8 kPa, x2 = 0.5196",10.58 ± 0.35 mPa·s
same,viscosity,"308.15 K, 101.8 kPa, x2 = 0.7165",10.23 ± 0.35 mPa·s
same,viscosity,"308.15 K, 101.8 kPa, x2 = 0.9076",9.905 ± 0.35 mPa·s
same,viscosity,"318.15 K, 101.8 kPa, x2 = 0.105",7.895 ± 0.35 mPa·s
same,viscosity,"318.15 K, 101.8 kPa, x2 = 0.3165",7.633 ± 0.34 mPa·s
same,viscosity,"318.15 K, 101.8 kPa, x2 = 0.5196",7.418 ± 0.34 mPa·s
same,viscosity,"318.15 K, 101.8 kPa, x2 = 0.7165",7.19 ± 0.33 mPa·s
same,viscosity,"318.15 K, 101.8 kPa, x2 = 0.9076",6.977 ± 0.33 mPa·s
CCCCCCCCCCCCO + CCCCCCCCCCO,viscosity,"298.15 K, 101.8 kPa, x2 = 0.1151",16.35 ± 0.42 mPa·s
same,viscosity,"298.15 K, 101.8 kPa, x2 = 0.3347",15.13 ± 0.41 mPa·s
same,viscosity,"298.15 K, 101.8 kPa, x2 = 0.5407",14.02 ± 0.41 mPa·s
same,viscosity,"298.15 K, 101.8 kPa, x2 = 0.7346",13.03 ± 0.4 mPa·s
same,viscosity,"298.15 K, 101.8 kPa, x2 = 0.9162",12.15 ± 0.39 mPa·s
same,viscosity,"308.15 K, 101.8 kPa, x2 = 0.1151",11.08 ± 0.41 mPa·s
same,viscosity,"308.15 K, 101.8 kPa, x2 = 0.3347",10.31 ± 0.36 mPa·s
same,viscosity,"308.15 K, 101.8 kPa, x2 = 0.5407",9.627 ± 0.36 mPa·s
same,viscosity,"308.15 K, 101.8 kPa, x2 = 0.7346",8.957 ± 0.36 mPa·s
same,viscosity,"308.15 K, 101.8 kPa, x2 = 0.9162",8.384 ± 0.34 mPa·s
same,viscosity,"318.15 K, 101.8 kPa, x2 = 0.1151",7.752 ± 0.36 mPa·s
same,viscosity,"318.15 K, 101.8 kPa, x2 = 0.3347",7.245 ± 0.34 mPa·s
same,viscosity,"318.15 K, 101.8 kPa, x2 = 0.5407",6.775 ± 0.34 mPa·s
same,viscosity,"318.15 K, 101.8 kPa, x2 = 0.7346",6.357 ± 0.34 mPa·s
same,viscosity,"318.15 K, 101.8 kPa, x2 = 0.9162",5.973 ± 0.33 mPa·s
CCCCCCCCCCCCO + CCCCCCCCCO,viscosity,"298.15 K, 101.8 kPa, x2 = 0.1246",15.91 ± 0.46 mPa·s
same,viscosity,"298.15 K, 101.8 kPa, x2 = 0.3557",14.07 ± 0.45 mPa·s
same,viscosity,"298.15 K, 101.8 kPa, x2 = 0.5641",12.49 ± 0.43 mPa·s
same,viscosity,"298.15 K, 101.8 kPa, x2 = 0.7516",11.2 ± 0.42 mPa·s
same,viscosity,"298.15 K, 101.8 kPa, x2 = 0.9218",10.02 ± 0.42 mPa·s
same,viscosity,"308.15 K, 101.8 kPa, x2 = 0.1246",10.86 ± 0.43 mPa·s
same,viscosity,"308.15 K, 101.8 kPa, x2 = 0.3557",9.686 ± 0.38 mPa·s
same,viscosity,"308.15 K, 101.8 kPa, x2 = 0.5641",8.677 ± 0.37 mPa·s
same,viscosity,"308.15 K, 101.8 kPa, x2 = 0.7516",7.814 ± 0.37 mPa·s
same,viscosity,"308.15 K, 101.8 kPa, x2 = 0.9218",7.056 ± 0.34 mPa·s
same,viscosity,"318.15 K, 101.8 kPa, x2 = 0.1246",7.599 ± 0.37 mPa·s
same,viscosity,"318.15 K, 101.8 kPa, x2 = 0.3557",6.831 ± 0.35 mPa·s
same,viscosity,"318.15 K, 101.8 kPa, x2 = 0.5641",6.182 ± 0.35 mPa·s
same,viscosity,"318.15 K, 101.8 kPa, x2 = 0.7516",5.591 ± 0.34 mPa·s
same,viscosity,"318.15 K, 101.8 kPa, x2 = 0.9218",5.091 ± 0.33 mPa·s
CC(C)CCCC(C)CCCC(C)CCCCC(C)CCCC(C)CCCC(C)C (centres undefined) + CCCCCCCCO,viscosity,"298.15 K, 101 kPa, x2 = 0.5974",13.55 ± 0.07 mPa·s
CCCCCCCCCCCCO + CCCCCCCCO,viscosity,"298.15 K, 101.8 kPa, x2 = 0.1377",15.08 ± 0.48 mPa·s
same,viscosity,"298.15 K, 101.8 kPa, x2 = 0.3798",12.91 ± 0.46 mPa·s
same,viscosity,"298.15 K, 101.8 kPa, x2 = 0.589",11.11 ± 0.45 mPa·s
same,viscosity,"298.15 K, 101.8 kPa, x2 = 0.7701",9.509 ± 0.44 mPa·s
same,viscosity,"298.15 K, 101.8 kPa, x2 = 0.9281",8.204 ± 0.43 mPa·s
same,viscosity,"308.15 K, 101.8 kPa, x2 = 0.1377",10.21 ± 0.43 mPa·s
same,viscosity,"308.15 K, 101.8 kPa, x2 = 0.3798",8.958 ± 0.38 mPa·s
same,viscosity,"308.15 K, 101.8 kPa, x2 = 0.589",7.745 ± 0.38 mPa·s
same,viscosity,"308.15 K, 101.8 kPa, x2 = 0.7701",6.704 ± 0.38 mPa·s
same,viscosity,"308.15 K, 101.8 kPa, x2 = 0.9281",5.873 ± 0.35 mPa·s
same,viscosity,"318.15 K, 101.8 kPa, x2 = 0.1377",7.201 ± 0.37 mPa·s
same,viscosity,"318.15 K, 101.8 kPa, x2 = 0.3798",6.357 ± 0.35 mPa·s
same,viscosity,"318.15 K, 101.8 kPa, x2 = 0.589",5.553 ± 0.35 mPa·s
same,viscosity,"318.15 K, 101.8 kPa, x2 = 0.7701",4.856 ± 0.35 mPa·s
same,viscosity,"318.15 K, 101.8 kPa, x2 = 0.9281",4.284 ± 0.33 mPa·s
